Patent US9833497B2, “Human originated EGF domain proteins and use of the same” (CHENGDU SOURCEBIO LIMITED-LIABILITY COMPANY, priority 2013, dated 2017)

Tests used:
Type in all cases: cell-based
E. coli DH5α = assay: Antibacterial activity: MIC and growth curve against E. coli DH5α in 96-well plate; conditions: minimal inhibitory concentration against E. coli DH5α; 96-well plate, 5×10^5 CFU/mL, 37° C., judged after 8 h
In short: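 Log-phase bacteria (OD600 ~0.5) resuspended in LB at 5×10^5 CFU/mL, exposed to recombinant protein at 50, 25, 12.5 μg/mL final in triplicate, 37 °C shaking at 175 rpm. OD600 read every 30 min; MIC is lowest concentration showing no growth.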

E. coli BL21 = assay: MIC against Gram-negative bacteria: E. coli BL21; conditions: for MIC: 10 h cultivation at 37° C.
In short: (§1)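 MIC = lowest concentration of recombinant protein showing no growth. Test proteins: purified human-derived EGF domain proteins, two-fold dilution series, three wells per concentration; inoculum 5×10^5 CFU/mL in LB; incubation 37° C with shaking at 175 rpm.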

Pseudomonas aeruginosa = assay: MIC against Gram-negative bacteria: Pseudomonas aeruginosa; conditions: for MIC: P. aeruginosa, 10 h cultivation at 37° C.
In short: as §1

Klebsiella pneumonia = assay: MIC against Gram-negative bacteria: Klebsiella pneumonia; conditions: for MIC: K. pneumonia, 10 h cultivation at 37° C.
In short: as §1

Enterobacter cloacae = assay: MIC against Gram-negative bacteria: Enterobacter cloacae; conditions: for MIC: E. cloacae, 10 h cultivation at 37° C.
In short: as §1

Aeromonas hydrophila = assay: MIC against Gram-negative bacteria: Aeromonas hydrophila; conditions: for MIC: A. hydrophila, 10 h cultivation at 37° C.
In short: as §1

Citrobacter diversus = assay: MIC against Gram-negative bacteria: Citrobacter diversus; conditions: for MIC: C. diversus, 10 h cultivation at 37° C.
In short: as §1

Moraxella catarrhalis = assay: MIC against Gram-negative bacteria: Moraxella catarrhalis; conditions: for MIC: M. catarrhalis, 10 h cultivation at 37° C.
In short: as §1

Proteus mirabilis = assay: MIC against Gram-negative bacteria: Proteus mirabilis; conditions: for MIC: P. mirabilis, 10 h cultivation at 37° C.
In short: as §1

Proteus vulgaris = assay: MIC against Gram-negative bacteria: Proteus vulgaris; conditions: for MIC: P. vulgaris, 10 h cultivation at 37° C.
In short: as §1

Serratia marcescens = assay: MIC against Gram-negative bacteria: Serratia marcescens; conditions: for MIC: S. marcescens, 10 h cultivation at 37° C.
In short: as §1

[1] = 96-well plate, 5×10^5 CFU/mL, 37° C., 10 h
[2] = E. coli BL21, 96-well plate, 5×10^5 CFU/mL, 37° C., 10 h
[3] = Pseudomonas aeruginosa, 96-well plate, 5×10^5 CFU/mL, 37° C., 10 h
[4] = Klebsiella pneumonia, 96-well plate, 5×10^5 CFU/mL, 37° C., 10 h
[5] = Enterobacter cloacae, 96-well plate, 5×10^5 CFU/mL, 37° C., 10 h
[6] = Aeromonas hydrophila, 96-well plate, 5×10^5 CFU/mL, 37° C., 10 h
[7] = Citrobacter diversus, 96-well plate, 5×10^5 CFU/mL, 37° C., 10 h
[8] = Moraxella catarrhalis, 96-well plate, 5×10^5 CFU/mL, 37° C., 10 h
[9] = Proteus mirabilis, 96-well plate, 5×10^5 CFU/mL, 37° C., 10 h
[10] = Proteus vulgaris, 96-well plate, 5×10^5 CFU/mL, 37° C., 10 h
[11] = Serratia marcescens, 96-well plate, 5×10^5 CFU/mL, 37° C., 10 h

Q: Which results are given for “PRT690 (EAEECGILDGCTNGRCVRVPEGFTCRCFDGYRLDMTRMACV; listed as Homo sapiens)”?
A: MIC (E. coli DH5α): 25 µg/mL; MIC E. coli BL21 (E. coli BL21; [1]): 50 µg/mL; MIC P. aeruginosa (Pseudomonas aeruginosa; [1]): 25 µg/mL; MIC K. pneumonia (Klebsiella pneumonia; [1]): 25 µg/mL; MIC E. cloacae (Enterobacter cloacae; [1]): 12.5 µg/mL; MIC A. hydrophila (Aeromonas hydrophila; [1]): 25 µg/mL; MIC C. diversus (Citrobacter diversus; [1]): 25 µg/mL; MIC M. catarrhalis (Moraxella catarrhalis; [1]): 50 µg/mL; MIC P. mirabilis (Proteus mirabilis; [1]): 12.5 µg/mL; MIC P. vulgaris (Proteus vulgaris; [1]): 50 µg/mL; MIC S. marcescens (Serratia marcescens; [1]): 12.5 µg/mL

Q: Which results are given for “PRT1028 (DENECATGFHRCGPNSVCINLPGSYRCECRSGYEFADDRHTCI; listed as Homo sapiens)”?
A: MIC (E. coli DH5α): 12.5 µg/mL; MIC (E. coli BL21; E. coli BL21): 50 µg/mL; MIC (Pseudomonas aeruginosa): 25 µg/mL; MIC (Klebsiella pneumonia): 50 µg/mL; MIC (Enterobacter cloacae): 25 µg/mL; MIC (Aeromonas hydrophila): 25 µg/mL; MIC (Citrobacter diversus): 12.5 µg/mL; MIC (Moraxella catarrhalis): 25 µg/mL; MIC (Proteus mirabilis): 50 µg/mL; MIC (Proteus vulgaris): 25 µg/mL; MIC (Serratia marcescens): 50 µg/mL

Q: How did the MIC (E. coli DH5α) turn out when “PRT730 (NGNSCSDFNGGCTHECVQEPFGAKCLCPLGFLLANDSKTCE; listed as Homo sapiens)” was run?
A: 25 µg/mL

Q: And the “MIC E. coli BL21” value (E. coli BL21; [1])?
A: 12.5 µg/mL

Q: What about the “MIC P. aeruginosa” value (Pseudomonas aeruginosa; [1]) of the same substance?
A: 25 µg/mL

Q: And the “MIC K. pneumonia” value (Klebsiella pneumonia; [1])?
A: 25 µg/mL

Q: And the “MIC E. cloacae” value (Enterobacter cloacae; [1])?
A: 50 µg/mL

Q: What about the “MIC A. hydrophila” value (Aeromonas hydrophila; [1]) of the same substance?
A: 25 µg/mL

Q: What about the “MIC C. diversus” value (Citrobacter diversus; [1]) of the same substance?
A: 12.5 µg/mL

Q: What about the “MIC M. catarrhalis” value (Moraxella catarrhalis; [1]) of the same substance?
A: 25 µg/mL

Q: What about the “MIC P. mirabilis” value (Proteus mirabilis; [1]) of the same substance?
A: 50 µg/mL

Q: What about the “MIC P. vulgaris” value (Proteus vulgaris; [1]) of the same substance?
A: 12.5 µg/mL

Q: What about the “MIC S. marcescens” value (Serratia marcescens; [1]) of the same substance?
A: 25 µg/mL

Q: “PRT1240 (WGPDCRESCPCHPHGQCEPATGACQCQADRWGARCE; listed as Homo sapiens)” was tested. Which MIC (E. coli DH5α) did it give?
A: 12.5 µg/mL

Q: What about the “MIC against E. coli BL21” value (E. coli BL21; [2]) of the same substance?
A: 50 µg/mL

Q: And the “MIC against P. aeruginosa” value (Pseudomonas aeruginosa; [3])?
A: 12.5 µg/mL

Q: What about the “MIC against K. pneumonia” value (Klebsiella pneumonia; [4]) of the same substance?
A: 12.5 µg/mL

Q: And the “MIC against E. cloacae” value (Enterobacter cloacae; [5])?
A: 25 µg/mL

Q: What about the “MIC against A. hydrophila” value (Aeromonas hydrophila; [6]) of the same substance?
A: 12.5 µg/mL

Q: And the “MIC against C. diversus” value (Citrobacter diversus; [7])?
A: 25 µg/mL

Q: And the “MIC against M. catarrhalis” value (Moraxella catarrhalis; [8])?
A: 50 µg/mL

Q: And the “MIC against P. mirabilis” value (Proteus mirabilis; [9])?
A: 25 µg/mL

Q: And the “MIC against P. vulgaris” value (Proteus vulgaris; [10])?
A: 12.5 µg/mL

Q: What about the “MIC against S. marcescens” value (Serratia marcescens; [11]) of the same substance?
A: 25 µg/mL

Q: “PRT1242 (WGPECQQQCECVRGRCSAASGECTCPPGFRGARCE; listed as Homo sapiens)” was tested. Which MIC (E. coli DH5α) did it give?
A: 25 µg/mL

Q: What about the “MIC against E. coli BL21” value (E. coli BL21; [2]) of the same substance?
A: 50 µg/mL

Q: And the “MIC against P. aeruginosa” value (Pseudomonas aeruginosa; [3])?
A: 25 µg/mL

Q: What about the “MIC against K. pneumonia” value (Klebsiella pneumonia; [4]) of the same substance?
A: 12.5 µg/mL

Q: And the “MIC against E. cloacae” value (Enterobacter cloacae; [5])?
A: 25 µg/mL

Q: What about the “MIC against A. hydrophila” value (Aeromonas hydrophila; [6]) of the same substance?
A: 25 µg/mL

Q: What about the “MIC against C. diversus” value (Citrobacter diversus; [7]) of the same substance?
A: 50 µg/mL

Q: What about the “MIC against M. catarrhalis” value (Moraxella catarrhalis; [8]) of the same substance?
A: 25 µg/mL

Q: And the “MIC against P. mirabilis” value (Proteus mirabilis; [9])?
A: 12.5 µg/mL

Q: What about the “MIC against P. vulgaris” value (Proteus vulgaris; [10]) of the same substance?
A: 25 µg/mL

Q: And the “MIC against S. marcescens” value (Serratia marcescens; [11])?
A: 50 µg/mL

Q: For “PRT924 (DVDECAMANSNPCEHAGKCVNTDGAFHCECLKGYAGPRCE; listed as Homo sapiens)”, which MIC (E. coli DH5α) is on record?
A: 12.5 µg/mL

Q: What about the MIC (E. coli BL21; E. coli BL21) of the same substance?
A: 25 µg/mL

Q: What about the MIC (Pseudomonas aeruginosa) of the same substance?
A: 50 µg/mL

Q: And the MIC (Klebsiella pneumonia)?
A: 12.5 µg/mL

Q: And the MIC (Enterobacter cloacae)?
A: 25 µg/mL

Q: And the MIC (Aeromonas hydrophila)?
A: 50 µg/mL

Q: And the MIC (Citrobacter diversus)?
A: 12.5 µg/mL

Q: What about the MIC (Moraxella catarrhalis) of the same substance?
A: 50 µg/mL

Q: And the MIC (Proteus mirabilis)?
A: 25 µg/mL

Q: And the MIC (Proteus vulgaris)?
A: 12.5 µg/mL

Q: What about the MIC (Serratia marcescens) of the same substance?
A: 50 µg/mL

Q: What does the source list for “PRT142 (PCPGRYLRAGKCAELPNCLDDLGGFACECATGFELGKDGRSCV; listed as Homo sapiens)”?
A: MIC (E. coli DH5α): 12.5 µg/mL; MIC (μg/mL) E. coli BL21 (E. coli BL21; [2]): 12.5 µg/mL; MIC (μg/mL) P. aeruginosa (Pseudomonas aeruginosa; [3]): 25 µg/mL; MIC (μg/mL) K. pneumonia (Klebsiella pneumonia; [4]): 12.5 µg/mL; MIC (μg/mL) E. cloacae (Enterobacter cloacae; [5]): 25 µg/mL; MIC (μg/mL) A. hydrophila (Aeromonas hydrophila; [6]): 25 µg/mL; MIC (μg/mL) C. diversus (Citrobacter diversus; [7]): 12.5 µg/mL; MIC (μg/mL) M. catarrhalis (Moraxella catarrhalis; [8]): 25 µg/mL; MIC (μg/mL) P. mirabilis (Proteus mirabilis; [9]): 12.5 µg/mL; MIC (μg/mL) P. vulgaris (Proteus vulgaris; [10]): 25 µg/mL; MIC (μg/mL) S. marcescens (Serratia marcescens; [11]): 12.5 µg/mL
